Experimental data: patent US12129223B2, “Lipids for use in lipid nanoparticle formulations” (Acuitas Therapeutics, Inc., priority 2021, dated 2024)

Tests used:
[1] = system: luciferase expression in the liver; assay: Luciferase mRNA in vivo evaluation using lipid nanoparticle compositions; set-up: species or system mice; details: LNP with FLuc mRNA, tail vein injection; for Liver Luc, *Determined at 0.5 mg/kg: 0.5 mg mRNA/kg (starred cells of the 0.3 mg/kg column), liver 4 hours after administration; for Liver Luc @ 0.3 mg/kg: 0.3 mg mRNA/kg; for Liver Luc @ 0.3 mg/kg / Liver Luc @ 1.0 mg/kg: ng luciferase/g liver 4 hours after administration; for Liver Luc @ 1.0 mg/kg: 1.0 mg mRNA/kg
Experimental: A lipid of structure (I), DSPC, cholesterol and PEG-lipid are solubilized in ethanol at a molar ratio of 50:10:38.5:1.5 or 47.5:10:40.7:1.8. Lipid nanoparticles (LNP) are prepared at a total lipid to mRNA weight ratio of approximately 10:1 to 40:1. Briefly, the mRNA is diluted to 0.2 mg/mL in 10 to 50 mM citrate buffer, pH 4 or 10 to 25 mM acetate buffer, pH 4. Syringe pumps are used to mix the ethanolic lipid solution with the mRNA aqueous solution at a ratio of about 1:5 to 1:3 (vol/vol) with total flow rates above 15 mL/min. The ethanol is then removed and the external buffer replaced with PBS by dialysis. Finally, the lipid nanoparticles are filtered through a 0.2 µm pore sterile filter.
Studies are performed in 6-8 week old female C57BL/6 mice (Charles River) 8-10 week old CD-1 (Harlan) mice (Charles River) according to guidelines established by an institutional animal care committee (ACC) and the Canadian Council on Animal Care (CCAC). Varying doses of mRNA-lipid nanoparticle are systemically administered by tail vein injection and animals euthanized at a specific time point (e.g., 4 hours) post-administration. Liver and spleen are collected in pre-weighed tubes, weights determined, immediately snap frozen in liquid nitrogen and stored at −80° C. until processing for analysis.
For liver, approximately 50 mg is dissected for analyses in a 2 mL FastPrep tubes (MP Biomedicals, Solon OH). ¼″ ceramic sphere (MP Biomedicals) is added to each tube and 500 μL of Glo Lysis Buffer—GLB (Promega, Madison WI) equilibrated to room temperature is added to liver tissue. Liver tissues are homogenized with the FastPrep24 instrument (MP Biomedicals) at 2×6.0 m/s for 15 seconds. Homogenate is incubated at room temperature for 5 minutes prior to a 1:4 dilution in GLB and assessed using SteadyGlo Luciferase assay system (Promega). Specifically, 50 μL of diluted tissue homogenate is reacted with 50 μL of SteadyGlo substrate, shaken for 10 seconds followed by 5 minute incubation and then quantitated using a CentroXS^3 LB 960 luminometer (Berthold Technologies, Germany). The amount of protein assayed is determined by using the BCA protein assay kit (Pierce, Rockford, IL). Relative luminescence units (RLU) are then normalized to total μg protein assayed. To convert RLU to ng luciferase a standard curve is generated with QuantiLum Recombinant Luciferase (Promega).
The FLuc mRNA (L-6107) from Trilink Biotechnologies will express a luciferase protein, originally isolated from the firefly, Photinus pyralis. FLuc is commonly used in mammalian cell culture to measure both gene expression and cell viability. It emits bioluminescence in the presence of the substrate, luciferin. This capped and polyadenylated mRNA is fully substituted with 5-methylcytidine and pseudouridine.
Representative compounds of the disclosure shown in Table 2 were formulated using the following molar ratio: 50% cationic lipid/10% distearoylphosphatidylcholine (DSPC)/38.5% Cholesterol/1.5% PEG lipid 2-[2-(ω-methoxy(polyethyleneglycol2000)ethoxy]-N,N-ditetradecyl acetamide) or 47.5% cationic lipid/10% DSPC/40.7% Cholesterol/1.8% PEG lipid. Relative activity was determined by measuring luciferase expression in the liver 4 hours following administration via tail vein injection as described in Example 1 or by measuring the amount of human IgG in mouse serum as described in example 2. The activity was compared at a dose of 1.0 or 0.5 or 0.3 mg mRNA/kg and expressed as ng luciferase/g liver measured 4 hours after administration, as described in Example 1 or as μg IgG/mL serum measured 24 hours after administration, as described in Example 2. Compound numbers in Table 2 refer to the compound numbers of Table 1.

[2] = Determination of pKa of formulated lipids (TNS fluorescence assay in lipid nanoparticles); assay type: physicochemical; details: lipid nanoparticles (compound/DSPC/cholesterol/PEG-lipid), lipid formulated in LNP (lipid/DSPC/cholesterol/PEG-lipid), pH at half-maximal intensity
Experimental: As described elsewhere, the pKa of formulated lipids is correlated with the effectiveness of LNPs for delivery of nucleic acids (see Jayaraman et al, Angewandte Chemie, International Edition (2012), 51(34), 8529-8533; Semple et al, Nature Biotechnology 28, 172-176 (2010)). In some embodiments, the preferred range of pKa is ˜5 to ˜7. The pKa of each lipid is determined in lipid nanoparticles using an assay based on fluorescence of 2-(p-toluidino)-6-napthalene sulfonic acid (TNS). Lipid nanoparticles comprising compound of structure (I)/DSPC/cholesterol/PEG-lipid (50/10/38.5/1.5 or 47.5:10:40.7:1.8 mol %) in PBS at a concentration of 0.4 mM total lipid are prepared using the in-line process as described in Example 1. TNS is prepared as a 100 μM stock solution in distilled water. Vesicles are diluted to 24 μM lipid in 2 mL of buffered solutions containing 10 mM HEPES, 10 mM MES, 10 mM ammonium acetate, and 130 mM NaCl, where the pH ranged from 2.5 to 11. An aliquot of the TNS solution is added to give a final concentration of 1 μM and following vortex mixing fluorescence intensity is measured at room temperature in a SLM Aminco Series 2 Luminescence Spectrophotometer using excitation and emission wavelengths of 321 nm and 445 nm. A sigmoidal best fit analysis is applied to the fluorescence data and the pKa is measured as the pH giving rise to half-maximal fluorescence intensity.

| Compound | pKa [2] | Liver Luc, *Determined at 0.5 mg/kg [1] | Liver Luc @ 0.3 mg/kg [1] [ng/g] | Liver Luc @ 1.0 mg/kg [1] [ng/g] |
| --- | --- | --- | --- | --- |
| CCCCCCCCN(CCCCCCCC)C(=O)CCCCCN(CCO)CCCCCC(=O)N(CCCCCCCC)CCCCCCCC [Compound I-3, 6,6′-((2-hydroxyethyl)azanediyl)bis(N,N-dioctylhexanamide)] | 6.87 | 227 ± 138* ng/g | – | – |
| CCCCCCCCCCN(CCCCCCCCCC)C(=O)CCCCCCCN(C)CCCCCCCC(=O)N(CCCCCCCCCC)CCCCCCCCCC [Compound I-6, 8,8′-(methylazanediyl)bis(N,N-didecyloctanamide)] | 6.19 | – | 20084 ± 5967 | 78367 ± 15904 |
| CCCCCCCCN(CCCCCCCC)C(=O)CCCCCCCN(C)CCCCCCCC(=O)N(CCCCCCCC)CCCCCCCC [Compound I-7, 8,8′-(methylazanediyl)bis(N,N-dioctyloctanamide)] | 6.43 | – | 16595 ± 836 | 81021 ± 24105 |
| CCCCCCCCN(CCCCCCCC)C(=O)CCCCCCCCCN(C)CCCCCCCCCC(=O)N(CCCCCCCC)CCCCCCCC [Compound I-8, 10,10′-(methylazanediyl)bis(N,N-dioctyldecanamide)] | 6.02 | – | 8743 ± 2153 | 37220 ± 15377 |
| CCCCCCCCCCCCCCCC(=O)N(CCCCCC)CCCCCCN(C)CCCCCCN(CCCCCC)C(=O)CCCCCCCCCCCCCCC [Compound I-9, N,N′-((methylazanediyl)bis(hexane-6,1-diyl))bis(N-hexylpalmitamide)] | 6.83 | – | 4337 ± 1394 | 21023 ± 12693 |
| CCCCCCCCCCN(CCCCCCCCCC)C(=O)CCCCCN(C)CCCCCC(=O)N(CCCCCCCCCC)CCCCCCCCCC [Compound I-10, 6,6′-(methylazanediyl)bis(N,N-didecylhexanamide)] | 6.77 | – | 10779 ± 2473 | 22622 ± 8189 |
| CCCCC/C=C\C/C=C\CCCCCCCC(=O)N(CCCCCC)CCCCCCN(C)CCCCCCN(CCCCCC)C(=O)CCCCCCC/C=C\C/C=C\CCCCC [Compound I-14, (9Z,9′Z,12Z,12′Z)—N,N′-((methylazanediyl)bis(hexane-6,1-diyl))bis(N-hexyloctadeca-9,12-dienamide)] | 6.59 | – | 2738 ± 728 | 5735 ± 2364 |
| CCCCCCCCN(CCCCCCCC)C(=O)CCCCCCCCCN(CCCCCCO)CCCCCCCCCC(=O)N(CCCCCCCC)CCCCCCCC [Compound I-18, 10,10′-((6-hydroxyhexyl)azanediyl)bis(N,N-dioctyldecanamide)] | 6.02 | – | 7115 ± 2087 | 14879 ± 1595 |
| CCCCCCCCCCN(CCCCCCCCCC)C(=O)CCCCCCCCCN(CCO)CCCCCCCCCC(=O)N(CCCCCCCCCC)CCCCCCCCCC [Compound I-20, 10,10′-((2-hydroxyethyl)azanediyl)bis(N,N-didecyldecanamide)] | 6.27 | 879 ± 365* ng/g | – | – |
| CCCCCCCCCCN(CCCCCCCCCC)C(=O)CCCCCCCCCN(CCCCO)CCCCCCCCCC(=O)N(CCCCCCCCCC)CCCCCCCCCC [Compound I-25, 10,10′-((4-hydroxybutyl)azanediyl)bis(N,N-didecyldecanamide)] | 6.28 | – | 20276 ± 3044 | 64656 ± 24090 |

More lines, main results first:

| pKa [2] | Compound | Liver Luc, *Determined at 0.5 mg/kg [1] | Liver Luc @ 0.3 mg/kg [1] [ng/g] | Liver Luc @ 1.0 mg/kg [1] [ng/g] |
| --- | --- | --- | --- | --- |
| 6.56 | CCCCC(CC)CN(CC(CC)CCCC)C(=O)CCCCCN(CCCCO)CCCCCC(=O)N(CC(CC)CCCC)CC(CC)CCCC (stereo not drawn) [Compound I-27, 6,6′-((4-hydroxybutyl)azanediyl)bis(N,N-bis(2-ethylhexyl)hexanamide)] | 21 ± 6* ng/g | – | – |
| 6.22 | CCCCCCCCCCN(CCCCCCCCCC)C(=O)CCCCCCCCCN(CCCCCCCCCC(=O)N(CCCCCCCCCC)CCCCCCCCCC)CCN(C)C [Compound I-28, 10,10′-((2-(dimethylamino)ethyl)azanediyl)bis(N,N-didecyldecanamide)] | – | 6602 ± 2609 | 13298 ± 4040 |
| 6.16 | CCCCCCCCCCNC(=O)CCCCN(CCCCCCCC(=O)N(CCCCCCCCCC)CCCCCCCCCC)CCCCCCCC(=O)N(CCCCCCCCCC)CCCCCCCCCC [Compound I-30, 8,8′-((5-(decylamino)-5-oxopentyl)azanediyl)bis(N,N-didecyloctanamide)] | – | 6567 ± 1534 | 19625 ± 2173 |
| 5.91 | CCCCCCCCCCN(CCCCCCCCCC)C(=O)CCCCCCCN(CCCCCCCC(=O)N(CCCCCCCCCC)CCCCCCCCCC)CCOCCOC [Compound I-46, 8,8′-((2-(2-methoxyethoxy)ethyl)azanediyl)bis(N,N-didecyloctanamide)] | – | 10201 ± 2440 | 52937 ± 8101 |
| 6.22 | CCCCCCCCCCN(CCCCCCCCCC)C(=O)CCCCCCCN(C)CCCCCCCC(=O)N(CCCCCCCC)CCCCCCCC [Compound I-55, N,N-didecyl-8-((8-(dioctylamino)-8-oxooctyl)(methyl)amino)octanamide] | – | 8244 ± 1599 | 30106 ± 13756 |
| 6.24 | CCCCCCCCCCN(CCCCCCCCCC)C(=O)CCCCCCCCCN(CCCCCCCCCC(=O)N(CCCCCCCCCC)CCCCCCCCCC)CCCn1ccnc1 [Compound I-57, 10,10′-((3-(1H-imidazol-1-yl)propyl)azanediyl)bis(N,N-didecyldecanamide)] | – | 476 ± 134 | 1456 ± 518 |
